# Source: US9492428B2, “Compounds, compositions, pharmaceutical compositions, and methods of use” (University of Louisville Research Foundation, Inc., priority 2011, dated 2016)
# Assays:
# [1] = system: DU145 cells; experiment: MTT assay (cytotoxicity / cell proliferation) in DU145; format: cell-based, human; conditions: Homo sapiens, DU-145; MTT assay, FIG. 4; read-out: GI50 against DU145
# Procedure: (§1) FIG. 4. Bioassay of compound I-1, compound I-2, and compound I-3. SPA14-3-2 is pure compound I-2. SPA14-3-3 is pure compound I-3. SPA14-3-4 is pure compound I-1. MTT assays using compound I-1, compound I-2, and compound I-3 against DU145 and RWPE-1 cells lines.
# FIG. 8. Cell proliferation assay. (A) DU145 or PC3 prostate cancer were plated at a density of 1,500 cells per well in 96-well plates and incubated 18 hours at 37° C. to allow adherence. They were untreated or treated by addition of different concentrations of compound I-1 (which were added directly to the medium) or vehicle (DMSO), and proliferation was measured using a 3-(4,5-dimethylthiazol-2-yl)-2,5-diphenyltetrazolium bromide MTT assay after 3 days of treatment. Points, mean of triplicate normalized samples to vehicle sample; bars, SE. (B) GI50 after 3 days of treatment. (C) Prostate cancer cells (DU145 or PC3) or a non-malignant epithelial cells (RWPE-1) were plated at a density of 1,000 cells per well in 96-well plates and incubated 18 hours at 37° C. to allow adherence. They were untreated or treated by addition of different concentrations of compound I-1 (added directly to the medium) or vehicle (DMSO), and proliferation was by MTT assay after 5 days of treatment. Points, mean of triplicate normalized samples to vehicle sample; bars, SE.
# (§2) Isolation, NMR, and X-ray crystallographic analyses. Leaves, stems, and few fruits of Physalis angulate L (Solanaceae) were collected in Rio Domingusa. Kuith/Barranquita, Amazonas Department, Northeastern Peru, and identified by the team led by Walter Lewis (collection voucher 18597, Ext. 1159). Dried and grounded material (46 g) was extracted with ethanol (1 L, 95%) for 7 days. The evaporated crude extract (6.26 g) was denoted SPA. An aliquot (1.5 g) of SPA was partitioned between dichloromethane (40 mL) and water (40 mL), affording two fractions: organic (SPA1, 500 mg) and aqueous (SPA2, 600 mg). All MTT assays were performed as described in Bates et al. “G-Rich Oligonucleotides for Cancer Treatment” Chapter 21 of Methods in Molecular Biology, Gene Therapy of Cancer, Wolfgang Walther and Ulrike S. Stein (eds.), Vol. 542, 2009, Humana Press. […] SPA14-3 (30 mg) was treated on an HPLC using a reverse phase C18 column eluted in gradient mode of methanol and water (from 80% methanol to 100% methanol) and detected at 254 nm, yielding SPA14-3-1 (0 mg), SPA14-3-2 (1.2 mg of pure compound I-2), SPA14-3-3 (4.1 mg of pure compound I-3), and SPA14-3-4 (18 mg of pure compound I-1).
# General Experimental Procedure. Compound I-1 was isolated as described in Example Set 1, above. For samples of compound I-1 used in Example Set 2, HPLC and NMR indicated a purity of at least 95%. All experiments described in Example Set 2 were repeated at least two or three times. […]
# [2] = system: RWPE-1 cells; experiment: MTT assay (cytotoxicity) in RWPE-1; format: cell-based; conditions: Homo sapiens, FIG. 4, read-out: GI50 against RWPE-1
# Source text: as §1, §2
# General Experimental Procedure. Compound I-1 was isolated as described in Example Set 1, above. For samples of compound I-1 used in Example Set 2, HPLC and NMR indicated a purity of at least 95%. All experiments described in Example Set 2 were repeated at least two or three times. All MTT assays were performed according to Bates et al. “G-Rich Oligonucleotides for Cancer Treatment” Chapter 21 of Methods in Molecular Biology, Gene Therapy of Cancer, Wolfgang Walther and Ulrike S. Stein (eds.), Vol. 542, 2009, Humana Press.
Compound,GI50 [1] [mg/L],GI50 [2] [mg/L]
CC12C[C@@H]([C@@]34CC[C@@]5(O3)C3C(O4)[C@H]4O[C@]46CC=CC(=O)[C@]6(C)[C@H]3CC[C@]5(C)O)C(C[C@@]1(C)O)OC2=O (stereo partly shown) [I-3],3,3.3
CC12C[C@@H]([C@@]34CC[C@@]5(O3)C3C(O4)[C@H]4O[C@]46CC=CC(=O)[C@]6(C)[C@H]3CC[C@@]5(C)O)C(C[C@@]1(C)O)OC2=O (stereo partly shown) [I-2],3.4,3
